This note sets out measurements from PMC6973011, “Stafia‐1: a STAT5a‐Selective Inhibitor Developed via Docking‐Based Screening of in Silico O‐Phosphorylated Fragments” (Chemistry (Weinheim an Der Bergstrasse, Germany), 2019).

The target in experiment [1] is T1, STAT5b Arg566Trp (Homo sapiens, UniProt P51692, R566W).
T1 construct: made in house
T1 sequence (P51692 1-787 R566W): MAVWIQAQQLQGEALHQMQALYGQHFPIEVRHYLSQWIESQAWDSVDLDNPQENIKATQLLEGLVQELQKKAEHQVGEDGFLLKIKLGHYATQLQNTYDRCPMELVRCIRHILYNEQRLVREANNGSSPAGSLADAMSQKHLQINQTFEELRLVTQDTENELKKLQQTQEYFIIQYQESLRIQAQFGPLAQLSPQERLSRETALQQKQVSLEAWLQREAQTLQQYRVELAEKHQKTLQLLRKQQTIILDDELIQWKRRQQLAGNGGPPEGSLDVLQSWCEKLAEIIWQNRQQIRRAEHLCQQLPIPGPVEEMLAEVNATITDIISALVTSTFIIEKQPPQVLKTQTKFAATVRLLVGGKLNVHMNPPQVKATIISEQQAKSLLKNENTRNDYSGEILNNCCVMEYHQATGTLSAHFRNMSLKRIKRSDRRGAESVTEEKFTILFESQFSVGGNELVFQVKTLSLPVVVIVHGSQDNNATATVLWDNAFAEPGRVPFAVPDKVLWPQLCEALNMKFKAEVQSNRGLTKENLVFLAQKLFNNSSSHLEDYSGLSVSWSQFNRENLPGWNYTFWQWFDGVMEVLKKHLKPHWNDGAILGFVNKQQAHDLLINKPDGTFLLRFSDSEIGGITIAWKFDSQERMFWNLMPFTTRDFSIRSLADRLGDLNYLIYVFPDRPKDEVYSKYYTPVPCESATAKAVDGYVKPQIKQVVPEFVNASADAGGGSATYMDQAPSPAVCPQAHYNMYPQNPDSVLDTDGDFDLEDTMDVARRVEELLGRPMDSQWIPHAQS
The experiment in a line: Fluorescence polarization assay, point mutant STAT5b Arg566Trp. The format is binding. The note with it: FP assay.

The target of experiment [2] is T2, STAT5a Trp566Arg (Homo sapiens, UniProt P42229, W566R).
T2 construct: made in house
T2 sequence (P42229 1-794 W566R): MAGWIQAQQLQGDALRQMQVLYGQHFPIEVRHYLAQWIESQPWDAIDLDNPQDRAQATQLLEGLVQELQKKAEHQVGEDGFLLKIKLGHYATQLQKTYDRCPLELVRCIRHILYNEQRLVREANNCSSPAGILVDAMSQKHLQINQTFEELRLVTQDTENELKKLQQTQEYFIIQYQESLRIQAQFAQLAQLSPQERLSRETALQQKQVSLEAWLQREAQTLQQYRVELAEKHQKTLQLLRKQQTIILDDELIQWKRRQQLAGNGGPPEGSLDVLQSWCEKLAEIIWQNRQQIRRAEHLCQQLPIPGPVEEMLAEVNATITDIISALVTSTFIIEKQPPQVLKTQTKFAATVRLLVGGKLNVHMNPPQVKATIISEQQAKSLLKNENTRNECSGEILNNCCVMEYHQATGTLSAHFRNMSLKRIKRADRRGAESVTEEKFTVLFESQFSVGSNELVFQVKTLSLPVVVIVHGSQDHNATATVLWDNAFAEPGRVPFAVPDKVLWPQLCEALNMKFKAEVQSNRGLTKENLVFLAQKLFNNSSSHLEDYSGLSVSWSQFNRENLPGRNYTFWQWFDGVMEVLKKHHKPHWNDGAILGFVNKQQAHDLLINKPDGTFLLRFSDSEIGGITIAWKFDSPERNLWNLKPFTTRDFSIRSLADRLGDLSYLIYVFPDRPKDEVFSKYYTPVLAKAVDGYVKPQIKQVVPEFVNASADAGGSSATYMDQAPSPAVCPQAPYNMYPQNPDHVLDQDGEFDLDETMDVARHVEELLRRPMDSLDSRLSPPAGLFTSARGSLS
The experiment in a line: Fluorescence polarization assay, point mutant STAT5a Trp566Arg. The format is binding. (Polarisation of emitted light reports the rotation of a fluorescent probe.)

Experiment [3] concerns the target T3, STAT5a (Homo sapiens, UniProt P42229).
T3 construct: made in house
T3 sequence (P42229 1-794): T2 sequence (P42229 1-794 W566R) with R566W
The experiment in a line: Fluorescence polarization competitive binding assay, STAT5a.

Experiment [4] addresses STAT3 (Homo sapiens, UniProt P40763). The experiment in a line: Fluorescence polarization competitive binding assay, STAT3 SH2 domain. The note with it: read-out: STAT3 inhibition at 200 μM.
Text: Expression and purification of STAT1, STAT3, STAT4, STAT5a, STAT5b, STAT5a Trp566Arg, STAT5b Arg566Trp, STAT5b 6M, STAT5b 7M, STAT6, and Lck have previously been described.[4, 12] STAT proteins were purified over a single His-Bind resin (Millipore) column.
Wild-type and mutant STAT5a/b proteins used for activity analysis of 20 were purified over two successive His-Bind resin columns.[4, 13]
Fluorescence Polarization assays
Competitive binding assays based on fluorescence polarization were essentially carried out as described.[14] Unless stated otherwise, the following final concentration of proteins were used:
STAT4; 105 nM for STAT6; 30 nM for Lck. Final concentration of all peptides: 10 nM. Peptides used: 5-carboxyfluorescein-GpYLVLDKW for STAT5a/b and point mutants thereof; 5-carboxyfluorescein-GpYLPQTV-NH2 for STAT3; 5-carboxyfluorescein-GpYDKPHVL for STAT1; 5-carboxyfluorescein-GpYLPQNID-OH for STAT4; 5-carboxyfluorescein-
analysis of 20 against wild-type (wt) STAT5a/b and STAT5a/b point mutants, the following concentrations of double-purified protein were used, which reflect the approximate Kd values of the interactions with 5-carboxyfluorescein-GpYLVLDKW: STAT5a wt: 147 nM; STAT5b wt:
STAT5b 6M: 80 nM; STAT5b 7M: 282 nM. Assay buffer: 10 mM Tris (pH 8.0), 50 mM NaCl, 1 mM EDTA, 1 mM DTT, 0.1 % Nonidet P-40 substitute, and 2 % DMSO in water. A major part of the pipetting was done using a Biomek FXp sceening robot (Beckman-Coulter). Protein and test compounds were incubated for 1 h, followed by addition of the fluorescein-labeled peptide.
Fluorescence polarization was measured after another hour using an Infinite F500 plate reader (Tecan). IC50 values were converted to Ki-values using the published equation.[15]
Setting [5] is: FP assay, double-purified protein.

Numbering of substitutions follows the chain as printed.

Sequence of STAT3 (P40763 whole entry, species assumed, the tested form may be a part): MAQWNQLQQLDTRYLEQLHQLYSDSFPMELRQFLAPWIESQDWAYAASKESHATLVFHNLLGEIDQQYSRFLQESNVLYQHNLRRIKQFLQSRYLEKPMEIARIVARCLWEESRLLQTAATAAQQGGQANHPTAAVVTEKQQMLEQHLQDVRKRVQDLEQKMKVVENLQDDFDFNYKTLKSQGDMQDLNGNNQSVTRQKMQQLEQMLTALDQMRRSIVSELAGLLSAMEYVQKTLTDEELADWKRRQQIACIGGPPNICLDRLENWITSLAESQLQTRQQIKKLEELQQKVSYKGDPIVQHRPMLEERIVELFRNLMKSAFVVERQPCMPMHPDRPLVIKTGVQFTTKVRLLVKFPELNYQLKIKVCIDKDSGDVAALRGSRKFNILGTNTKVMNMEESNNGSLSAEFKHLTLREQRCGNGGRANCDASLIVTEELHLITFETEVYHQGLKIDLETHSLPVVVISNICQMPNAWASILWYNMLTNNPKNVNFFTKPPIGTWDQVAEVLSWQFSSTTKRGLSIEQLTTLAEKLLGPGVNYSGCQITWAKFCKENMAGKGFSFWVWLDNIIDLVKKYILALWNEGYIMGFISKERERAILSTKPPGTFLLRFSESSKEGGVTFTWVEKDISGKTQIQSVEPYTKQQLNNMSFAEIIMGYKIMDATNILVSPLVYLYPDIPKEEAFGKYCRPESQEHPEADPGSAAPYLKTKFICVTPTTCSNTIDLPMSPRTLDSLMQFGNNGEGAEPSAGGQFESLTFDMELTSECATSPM

By inhibition is commonly meant the drop in the measured response relative to a control, in per cent. One may read the IC50 as the concentration needed to halve the response being measured. Higher therefore signals weaker potency. For orientation: Ki means a dissociation constant, usually derived from enzyme kinetics or from competition with a known ligand. High values mean weaker binding, low ones tighter binding. Take `COc1cc(-c2cc(OP(=O)(O)O)cc(-c3cc(OC)c(OC)c(OC)c3)c2)cc(OC)c1OC` [Compound 20]: the values for the inhibition at 200 µM in experiment [1] and in experiment [4] were 43 ± 7% and 27 ± 2%, respectively. For the same molecule, the IC50 in experiment [2] (setting [5]) worked out at 155 ± 15 µM; in experiment [3], 22.2 ± 3.6 µM. The Ki in experiment [2] (setting [5]) is 74 ± 7 µM; in experiment [3] it was 10.9 ± 1.8 µM. In experiment [2] (FP assays), the “reduction of activity against STAT5a Trp566Arg as compared to wild-type STAT5a” value is recorded as 7 fold. For the same molecule, the “selectivity for STAT5a over STAT5b” value in experiment [3] (FP assays, STAT5a vs STAT5b) was “at least 9 fold”.
